Where “and” joins values, the source holds several entries; their conditions need not be identical. Equal values may be shown once.
Tests used:
[1] = target: EGFR wild type (Homo sapiens, UniProt P00533); assay: Z'-LYTE kinase selectivity; details: read-out: IC50 EGFR wild type
[2] = target: T1, OATP1B1 (Homo sapiens, UniProt Q9Y6L6); assay: Uptake inhibitor investigation in HEK293 cells expressing transporter; type: in vitro ADME
T1 construct: No ESH6G27; host or cells: HEK293
T1 sequence (Q9Y6L6 1-691): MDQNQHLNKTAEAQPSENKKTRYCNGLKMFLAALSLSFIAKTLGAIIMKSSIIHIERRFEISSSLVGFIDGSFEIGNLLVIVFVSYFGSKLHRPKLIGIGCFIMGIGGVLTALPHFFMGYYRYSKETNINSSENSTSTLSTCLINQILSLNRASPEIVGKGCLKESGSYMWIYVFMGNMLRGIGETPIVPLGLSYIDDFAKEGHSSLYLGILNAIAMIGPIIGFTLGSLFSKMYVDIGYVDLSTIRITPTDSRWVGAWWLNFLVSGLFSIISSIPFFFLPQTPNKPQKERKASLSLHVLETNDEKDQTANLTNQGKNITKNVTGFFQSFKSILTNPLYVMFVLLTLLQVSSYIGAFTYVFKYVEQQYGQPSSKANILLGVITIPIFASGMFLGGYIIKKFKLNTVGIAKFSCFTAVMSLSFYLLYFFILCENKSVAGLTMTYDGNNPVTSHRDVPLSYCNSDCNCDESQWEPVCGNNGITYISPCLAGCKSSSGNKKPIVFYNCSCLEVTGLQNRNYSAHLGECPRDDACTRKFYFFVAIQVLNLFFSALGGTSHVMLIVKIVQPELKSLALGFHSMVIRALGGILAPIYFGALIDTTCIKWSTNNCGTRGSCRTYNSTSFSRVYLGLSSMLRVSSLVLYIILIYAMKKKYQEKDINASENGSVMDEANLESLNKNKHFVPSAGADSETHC

[3] = test system: OATP1B3; assay: as above; type: in vitro ADME
[4] = test system: OATP1B3; assay: Uptake substrate investigation in HEK293 cells expressing transporter
From the text: (§1) The engineered NIH-3T3 (CD74-ROS1 fusion gene) cells was obtained from Nanjing GenScript Biotechnology Co., Ltd. The engineered Ba/F3 (SLC34A2-ROS1 fusion gene) cell line was obtained from Kyinno Biotechnology (Beijing) Co., Ltd. The HCC-78 (SLC34A2-ROS1 fusion gene) cell line was purchased from Shanghai Hongshun Biotechnology Co., Ltd. The engineered NIH-3T3 (CD74-ROS1 fusion gene) cells was obtained from Nanjing GenScript Biotechnology Co., Ltd. The engineered HEK293 cell lines with OATP1B1 (Lot. No ESH6G27), OATP1B3 (Lot. No ESH7G27), OCT2 (Lot. No ESH9G27), OAT1 (Lot. No ESHCG27), OAT3 (Lot. […] No ESHDG27) were purchased from GenoMembrane and validated using the specific substrate for each transporter. All cells were cultured at 37℃ in a 5% CO2 atmosphere. Cell culture reagents were obtained from Life Technologies, Inc. See Supplemental Table 1 for details on the source of the cell lines and the media used.

[5] = target: T2, OATP1B3 (Homo sapiens, UniProt Q9NPD5); assay: as above; details: for Uptake transport activity, Mean: OATP1B3-293; for Uptake transport activity, Mean / Ratio of uptake transit activity / Uptake transport activity, Net value: Suppl. Table 11; for Ratio of uptake transit activity / Uptake transport activity, Net value: OATP1B3-293 vs MOCK293
T2 sequence (Q9NPD5 1-702): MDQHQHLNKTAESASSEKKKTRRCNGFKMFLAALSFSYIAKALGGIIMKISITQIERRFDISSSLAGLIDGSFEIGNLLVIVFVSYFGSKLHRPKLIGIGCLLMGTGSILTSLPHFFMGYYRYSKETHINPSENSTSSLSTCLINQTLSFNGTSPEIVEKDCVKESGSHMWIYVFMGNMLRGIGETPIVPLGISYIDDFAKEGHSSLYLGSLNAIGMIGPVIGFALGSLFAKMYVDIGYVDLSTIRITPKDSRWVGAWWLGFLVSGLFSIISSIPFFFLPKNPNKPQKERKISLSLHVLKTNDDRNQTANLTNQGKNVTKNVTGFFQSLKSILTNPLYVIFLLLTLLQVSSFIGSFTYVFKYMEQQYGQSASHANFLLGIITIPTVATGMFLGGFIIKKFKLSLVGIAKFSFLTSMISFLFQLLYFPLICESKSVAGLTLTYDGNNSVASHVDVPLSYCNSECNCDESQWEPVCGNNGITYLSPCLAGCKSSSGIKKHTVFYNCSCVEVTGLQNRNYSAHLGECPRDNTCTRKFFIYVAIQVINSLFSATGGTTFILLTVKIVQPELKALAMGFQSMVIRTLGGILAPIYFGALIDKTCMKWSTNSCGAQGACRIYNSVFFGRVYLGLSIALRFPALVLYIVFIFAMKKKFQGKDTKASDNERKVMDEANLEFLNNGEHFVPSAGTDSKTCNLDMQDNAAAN
From the text: as §1

[6] = target: ALK^C1156Y (Homo sapiens, UniProt Q9UM73, C1156Y); assay: HTRF kinase activity assay; type: biochemical
Chain of ALK^C1156Y (Q9UM73 19-1620 C1156Y): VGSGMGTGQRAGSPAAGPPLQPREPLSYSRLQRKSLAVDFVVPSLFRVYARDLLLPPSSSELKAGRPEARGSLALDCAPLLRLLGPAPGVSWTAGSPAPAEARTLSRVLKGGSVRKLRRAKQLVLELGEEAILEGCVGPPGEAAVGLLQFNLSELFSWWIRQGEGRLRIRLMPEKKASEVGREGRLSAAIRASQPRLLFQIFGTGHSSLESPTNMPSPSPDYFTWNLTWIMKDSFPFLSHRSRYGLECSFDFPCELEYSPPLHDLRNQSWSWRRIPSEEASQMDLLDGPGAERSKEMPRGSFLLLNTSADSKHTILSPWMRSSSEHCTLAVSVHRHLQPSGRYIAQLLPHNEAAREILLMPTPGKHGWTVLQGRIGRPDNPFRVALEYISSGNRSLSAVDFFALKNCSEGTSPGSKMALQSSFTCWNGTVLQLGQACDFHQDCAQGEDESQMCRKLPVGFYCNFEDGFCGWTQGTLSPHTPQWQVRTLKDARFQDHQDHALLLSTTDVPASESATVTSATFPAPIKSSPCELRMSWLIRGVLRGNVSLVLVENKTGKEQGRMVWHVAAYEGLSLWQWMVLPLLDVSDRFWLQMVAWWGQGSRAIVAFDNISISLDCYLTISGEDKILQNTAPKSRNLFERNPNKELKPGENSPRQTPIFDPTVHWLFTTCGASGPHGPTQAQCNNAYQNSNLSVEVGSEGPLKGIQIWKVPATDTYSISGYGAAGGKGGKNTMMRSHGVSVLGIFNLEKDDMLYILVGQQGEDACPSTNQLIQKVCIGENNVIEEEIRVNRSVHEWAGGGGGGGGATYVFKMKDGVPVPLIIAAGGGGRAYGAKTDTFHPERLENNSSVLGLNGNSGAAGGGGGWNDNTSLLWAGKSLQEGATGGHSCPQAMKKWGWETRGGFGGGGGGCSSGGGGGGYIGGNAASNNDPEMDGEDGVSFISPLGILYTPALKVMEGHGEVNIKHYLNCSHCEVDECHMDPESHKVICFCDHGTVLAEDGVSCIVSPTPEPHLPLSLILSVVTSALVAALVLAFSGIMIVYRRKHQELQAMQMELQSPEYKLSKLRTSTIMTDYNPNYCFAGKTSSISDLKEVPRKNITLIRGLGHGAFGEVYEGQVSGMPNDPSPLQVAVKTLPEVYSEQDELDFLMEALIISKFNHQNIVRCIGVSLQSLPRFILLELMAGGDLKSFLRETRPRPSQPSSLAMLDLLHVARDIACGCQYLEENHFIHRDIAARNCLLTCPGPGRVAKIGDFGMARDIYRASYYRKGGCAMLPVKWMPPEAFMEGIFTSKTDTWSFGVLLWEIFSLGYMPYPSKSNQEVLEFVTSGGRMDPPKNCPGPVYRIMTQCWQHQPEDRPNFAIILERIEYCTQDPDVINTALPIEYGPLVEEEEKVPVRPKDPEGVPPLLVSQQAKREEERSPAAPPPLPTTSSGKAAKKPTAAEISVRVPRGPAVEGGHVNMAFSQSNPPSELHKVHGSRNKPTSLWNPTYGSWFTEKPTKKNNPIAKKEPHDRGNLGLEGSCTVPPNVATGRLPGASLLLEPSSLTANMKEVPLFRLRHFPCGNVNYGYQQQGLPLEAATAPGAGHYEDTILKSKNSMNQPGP
Method: (§2) After the kinase proteins, Ulight-peptide species, adenosine triphosphate (ATP), and compound were mixed, the reaction was carried out at room temperature. Reactions were quenched by the addition of ethylene diamine tetraacetic acid buffer containing Eu antibody and XL665-streptavidin at the indicated time points. Plate reading was performed using an Envision (Perkin Elmer, MA, USA) multifunctional microplate reader.

[7] = target: T3, OCT2 (Homo sapiens, UniProt O15244); assay: Uptake inhibitor investigation in HEK293 cells expressing transporter; type: in vitro ADME; details: metformin as the substrate
T3 construct: No ESH9G27; host or cells: HEK293
T3 sequence (O15244 1-555): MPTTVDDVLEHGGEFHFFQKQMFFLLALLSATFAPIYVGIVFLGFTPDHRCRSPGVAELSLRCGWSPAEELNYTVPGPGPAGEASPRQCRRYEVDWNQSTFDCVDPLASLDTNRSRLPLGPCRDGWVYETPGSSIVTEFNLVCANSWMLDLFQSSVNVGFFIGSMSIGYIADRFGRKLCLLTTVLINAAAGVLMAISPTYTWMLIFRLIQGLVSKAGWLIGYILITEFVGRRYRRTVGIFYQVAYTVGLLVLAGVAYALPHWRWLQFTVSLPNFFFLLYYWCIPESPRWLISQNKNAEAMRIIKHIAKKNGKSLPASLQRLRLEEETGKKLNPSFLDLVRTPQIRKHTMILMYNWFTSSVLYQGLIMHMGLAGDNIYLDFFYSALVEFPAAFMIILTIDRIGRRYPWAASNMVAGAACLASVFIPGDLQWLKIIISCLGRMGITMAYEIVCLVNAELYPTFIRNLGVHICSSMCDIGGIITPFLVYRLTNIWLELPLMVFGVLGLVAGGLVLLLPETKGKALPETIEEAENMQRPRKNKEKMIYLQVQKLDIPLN

[8] = target: EGFR^L858R/T790M (Homo sapiens, UniProt P00533, L858R/T790M); assay: HTRF kinase activity assay
Chain of EGFR^L858R/T790M (P00533 25-1210 T790M/L858R): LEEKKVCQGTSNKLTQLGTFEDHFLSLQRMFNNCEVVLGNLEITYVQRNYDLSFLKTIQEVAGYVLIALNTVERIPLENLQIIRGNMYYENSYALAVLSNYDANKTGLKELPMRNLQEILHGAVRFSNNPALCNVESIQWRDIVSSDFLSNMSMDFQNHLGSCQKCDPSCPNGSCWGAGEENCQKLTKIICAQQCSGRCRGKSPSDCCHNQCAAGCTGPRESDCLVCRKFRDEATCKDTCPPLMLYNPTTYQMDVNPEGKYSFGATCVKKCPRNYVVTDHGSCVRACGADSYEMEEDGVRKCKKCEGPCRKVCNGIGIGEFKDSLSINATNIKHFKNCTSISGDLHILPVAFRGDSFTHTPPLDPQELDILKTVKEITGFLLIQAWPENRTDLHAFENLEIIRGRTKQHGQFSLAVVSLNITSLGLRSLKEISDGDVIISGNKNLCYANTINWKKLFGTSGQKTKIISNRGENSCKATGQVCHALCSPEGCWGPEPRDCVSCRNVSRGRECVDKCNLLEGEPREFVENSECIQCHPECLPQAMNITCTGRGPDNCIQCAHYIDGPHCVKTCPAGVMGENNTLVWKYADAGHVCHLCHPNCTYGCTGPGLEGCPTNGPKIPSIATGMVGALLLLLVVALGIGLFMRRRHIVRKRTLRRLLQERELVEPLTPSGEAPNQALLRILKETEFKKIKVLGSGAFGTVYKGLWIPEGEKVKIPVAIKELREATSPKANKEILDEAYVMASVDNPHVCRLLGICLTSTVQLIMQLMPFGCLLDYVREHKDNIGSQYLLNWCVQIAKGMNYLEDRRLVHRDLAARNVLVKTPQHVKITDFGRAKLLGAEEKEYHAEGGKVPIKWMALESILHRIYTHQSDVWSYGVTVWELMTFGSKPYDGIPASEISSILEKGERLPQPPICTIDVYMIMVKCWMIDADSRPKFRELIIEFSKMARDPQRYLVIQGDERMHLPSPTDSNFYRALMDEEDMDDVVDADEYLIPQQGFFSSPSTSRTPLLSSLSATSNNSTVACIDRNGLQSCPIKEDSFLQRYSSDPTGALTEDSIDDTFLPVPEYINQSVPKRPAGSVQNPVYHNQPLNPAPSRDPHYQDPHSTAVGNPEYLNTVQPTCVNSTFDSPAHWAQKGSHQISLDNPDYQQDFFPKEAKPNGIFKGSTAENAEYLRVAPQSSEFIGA
Method: as §2

[9] = human, HEK293 cells expressing OATP1B1, probe ATV (atorvastatin), 1 μM, read-out: Inhibition rate
[10] = human, HEK293 cells expressing OATP1B3, probe ATV (atorvastatin), 1 μM, read-out: Inhibition rate
[11] = MOCK293, test substrate 10 μM, no inhibitor, OATP1B3 pre-test
[12] = OATP1B1-293 (so in the source), test substrate 10 μM, no inhibitor, OATP1B3 pre-test
[13] = transporter cells vs MOCK293, test substrate 10 μM, no inhibitor, OATP1B3 pre-test

Chain of EGFR wild type (P00533 25-1210): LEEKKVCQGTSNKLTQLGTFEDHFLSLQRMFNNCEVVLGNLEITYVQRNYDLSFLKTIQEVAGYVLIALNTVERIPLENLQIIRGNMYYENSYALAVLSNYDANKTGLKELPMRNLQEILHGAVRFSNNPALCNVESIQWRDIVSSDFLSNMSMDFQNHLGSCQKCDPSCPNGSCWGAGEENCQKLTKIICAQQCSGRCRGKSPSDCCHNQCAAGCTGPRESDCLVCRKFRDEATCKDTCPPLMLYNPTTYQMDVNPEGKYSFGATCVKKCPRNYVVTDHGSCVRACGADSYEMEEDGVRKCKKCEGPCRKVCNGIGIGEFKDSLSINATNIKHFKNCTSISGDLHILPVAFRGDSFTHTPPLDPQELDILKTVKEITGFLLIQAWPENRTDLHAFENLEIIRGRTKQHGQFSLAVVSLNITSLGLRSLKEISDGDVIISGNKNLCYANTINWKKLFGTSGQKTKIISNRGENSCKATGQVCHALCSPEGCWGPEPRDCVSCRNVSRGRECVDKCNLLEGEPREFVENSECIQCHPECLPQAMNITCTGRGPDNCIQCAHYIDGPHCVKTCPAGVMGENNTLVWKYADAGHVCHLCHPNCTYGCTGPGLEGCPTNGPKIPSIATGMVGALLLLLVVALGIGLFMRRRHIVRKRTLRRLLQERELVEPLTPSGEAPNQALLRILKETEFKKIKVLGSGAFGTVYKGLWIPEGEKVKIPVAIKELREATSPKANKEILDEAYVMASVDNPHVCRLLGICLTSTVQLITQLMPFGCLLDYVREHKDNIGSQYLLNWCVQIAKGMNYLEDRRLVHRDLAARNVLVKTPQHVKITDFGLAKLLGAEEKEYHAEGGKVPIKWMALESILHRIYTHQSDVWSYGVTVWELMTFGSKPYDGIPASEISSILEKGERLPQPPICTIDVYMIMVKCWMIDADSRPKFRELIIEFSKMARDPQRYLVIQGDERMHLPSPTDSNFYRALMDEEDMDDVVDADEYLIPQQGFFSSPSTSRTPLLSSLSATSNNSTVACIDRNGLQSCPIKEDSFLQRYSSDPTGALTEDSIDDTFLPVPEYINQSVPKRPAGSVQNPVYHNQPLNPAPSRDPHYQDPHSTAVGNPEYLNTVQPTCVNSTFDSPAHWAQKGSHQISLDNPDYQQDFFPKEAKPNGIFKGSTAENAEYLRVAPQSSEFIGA

## COc1cc(N2CCC3(CCN(C)CC3)CC2)ccc1Nc1ncc(Cl)c(Nc2ccccc2P(C)(C)=O)n1 [Iruplinalkib]
[1]
  IC50: 0.035 µM
[2]; HEK293
  inhibition of OATP1B1 uptake activity: can inhibit the uptake activity
[2]; [9]
  inhibition at 0.5 μM: 26.5%
  inhibition at 5 μM: 28.9%
  inhibition at 50 μM: 67.8%
[3]; HEK293
  inhibition of OATP1B3 uptake activity: can inhibit the uptake activity
[3]; [10]
  inhibition at 0.5 μM: 7.2%
  inhibition at 5 μM: 15.3%
  inhibition at 50 μM: 41.1%
[4]; MOCK293 (OATP1B3 set), 0.3 μM, Suppl. Table 11
  Uptake transport activity, Mean: 5.902 pmol/mg protein/min
[4]; MOCK293 (OATP1B3 set), 3 μM, Suppl. Table 11
  Uptake transport activity, Mean: 44.98 pmol/mg protein/min
[4]; MOCK293 (OATP1B3 set), 30 μM, Suppl. Table 11
  Uptake transport activity, Mean: 484.5 pmol/mg protein/min
[4]; [11]
  Uptake transport activity, Mean: 230.3 pmol/mg protein/min
  Uptake transport activity, Repeat 1 / Repeat 2: 221.3 pmol/mg protein/min and 239.2 pmol/mg protein/min
[4]; [12]
  Uptake transport activity, Mean: 327.9 pmol/mg protein/min
  Uptake transport activity, Repeat 1 / Repeat 2: 313.3 pmol/mg protein/min and 342.6 pmol/mg protein/min
[4]; [13]
  Ratio of uptake transit activity: 1.42
  Uptake transport activity, Net value: 97.7 pmol/mg protein/min
[5]; 30 µM, 3 µM, 0.3 µM, HEK293
  uptake transport activity ratio, OATP1B3: less than two
[5]; HEK293
  uptake substrate of OATP1B3: not an uptake substrate
[5]; 0.3 μM
  Uptake transport activity, Mean: 8.165 pmol/mg protein/min
  Ratio of uptake transit activity: 1.38
  Uptake transport activity, Net value: 2.263 pmol/mg protein/min
[5]; 3 μM
  Uptake transport activity, Mean: 57.94 pmol/mg protein/min
  Ratio of uptake transit activity: 1.29
  Uptake transport activity, Net value: 12.964 pmol/mg protein/min
[5]; 30 μM
  Uptake transport activity, Mean: 641.1 pmol/mg protein/min
  Ratio of uptake transit activity: 1.32
  Uptake transport activity, Net value: 156.58 pmol/mg protein/min
[6]
  IC50: 0.00928 µM and < 0.01 µM
[7]
  inhibition of OCT2 uptake: only a weak inhibitory effect
[8]
  IC50: 0.0167 ± 0.00811 µM

Reference: article PMC10140010 (Investigational New Drugs, 2023)
